Assay results published in patent US20090068143A1, “ORALLY EFFECTIVE C[…]” (priority 2005, published 2009).
Marks after values point to notes of the source that are not given here.

Legend:
CB1 receptor = CB1 receptor (Homo sapiens, UniProt P21554); assay: CB1 binding assay
IFN-γ = assay: Real-time RT-PCR gene expression in CNS of MOG induced EAE: IFN-γ; assay type: in vivo, mouse; conditions: 40 mg/kg p.o., day 31, over naive animals
Experimental: (§1) Total RNA is prepared using SV total RNA isolation system (Promega). The brains and spinal cords, which were removed on day 31 from five animals treated with vehicle (i.e. untreated) or 40 mg/kg p.o. of compound 18F (i.e. treated) in the MOG-induced EAE study, were homogenized in lysis buffer. The lysates were transferred to an RNA isolation column, treated with DNAse, washed and eluted according to kit instructions. RNA concentrations were determined using GeneQuant II (Pharmacia-Amersham). Complementary DNA (cDNA) was synthesized from total RNA using […] II reverse transcriptase (Life Technologies). […] Quantitative real-time RT-PCR included 1 μl of the cDNA, 300 nM of the appropriate forward and reverse primers (according to the gene monitored) and 7.5 μl of the reaction mix containing buffer, nucleotides, Taq polymerase and SYBER green (SYBER Green master mix, Applied Biosystems), in a total reaction volume of 15 μl. […] During each annealing step, the amount of the amplified product was measured by the fluorescence of the double strand DNA binding dye, SYBER Green. The cycle of threshold (CT), representing the PCR cycle at which an increase in fluorescence above a baseline signal can be first detected, was determined for each product. […] Results were expressed as fold increase of gene expression in treated or untreated animals above the naive animals. […]

CB2 = assay: Real-time RT-PCR gene expression in CNS of MOG induced EAE: CB2; assay type: in vivo, mouse; conditions: 40 mg/kg p.o., day 31, over naive animals
Experimental: as §1

[1] = tested on: chronic constriction induced neuropathic pain; assay: Chronic constriction induced neuropathic pain (Von Frey filaments); assay type: in vivo, Sprague-Dawley rats
Excerpt: A peripheral monopathy was induced in the right hind limb of rats following a chronic constriction of the sciatic nerve according to Bennet et al. [Bennet, G. J. & Xie, Y-K., Pain 33: 87-107, 1988]. The development of mechanical allodyna was monitored using an established behavioral test (Von Frey filaments).
Pre-surgery baseline values were ascertained as the mean of 2 pre-surgery values. Once the baseline values had been established, the animals were surgically prepared by constricting the right sciatic nerve with 4 chromic cat gut loose ligatures. On day 11 post-operation, the animals that have developed mechanical allodyna were arbitrarily allocated to the various treatment groups based on the pre-surgery values.
The design was randomized, performed in a masked fashion as to whether drug or vehicle is being given. The animals, male Sprague-Dawley rats (average body weight 240-290 g, Harlan, Israel), were allowed to acclimatize to the behavioral testing equipment prior to testing. […] The filaments were applied in ascending order starting with the weakest force and the withdrawal threshold for both the ipsilateral and contralateral hind paws was evaluated. […] The withdrawal threshold is defined as being the lowest force of two or more consecutive Von Frey's filaments to elicit a reflex withdrawal response (i.e. a brief paw flick) and is measured in grams.

acute pain = conditions: pretreatment, administered orally; cited from earlier work
MCP-1 = assay: Real-time RT-PCR gene expression in CNS of MOG induced EAE: MCP-1; assay type: in vivo, mouse; conditions: 40 mg/kg p.o., day 31, over naive animals
Experimental: as §1

CB1 = assay: Real-time RT-PCR gene expression in CNS of MOG induced EAE: CB1; assay type: in vivo, mouse; conditions: 40 mg/kg p.o., day 31; over naive animals, normalized to cyclophilin
Experimental: as §1

Sequence of CB1 receptor (P21554 whole entry): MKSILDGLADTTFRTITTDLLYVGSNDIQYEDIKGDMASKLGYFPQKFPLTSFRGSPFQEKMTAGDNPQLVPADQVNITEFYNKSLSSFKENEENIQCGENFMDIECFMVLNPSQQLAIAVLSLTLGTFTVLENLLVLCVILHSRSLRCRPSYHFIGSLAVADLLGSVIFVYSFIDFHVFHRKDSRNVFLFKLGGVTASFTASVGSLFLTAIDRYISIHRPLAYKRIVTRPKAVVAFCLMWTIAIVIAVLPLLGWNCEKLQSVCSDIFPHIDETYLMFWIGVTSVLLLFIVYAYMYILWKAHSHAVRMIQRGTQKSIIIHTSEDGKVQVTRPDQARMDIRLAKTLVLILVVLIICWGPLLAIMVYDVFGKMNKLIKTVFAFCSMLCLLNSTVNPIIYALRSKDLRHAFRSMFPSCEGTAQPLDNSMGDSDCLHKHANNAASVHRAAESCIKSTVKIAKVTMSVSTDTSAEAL

CCCCCCC(C)(C)c1cc(O)c([C@H]2CC(=O)C3CC2C3(C)C)c(OC(=O)/C=C/C(=O)O)c1 (single isomer, unassigned; (-)) [Compound 18F, (−)-4-{4-[1,1-Dimethylheptyl]-2-fumarate-6-hydroxy-phenyl}-6,6-dimethyl-bicyclo[3.1.1]heptan-2-one]
IC50 (CB1 receptor): 334 nM
Fold gene expression IFN-γ, Spinal Cord, Treated (IFN-γ): 3 fold
Fold gene expression IFN-γ, Brain, Treated (IFN-γ; untreated −9): 1* fold
Fold gene expression CB2, Spinal Cord, Treated (CB2): 2 fold
Fold gene expression CB2, Brain, Treated (CB2; untreated −13): 1* fold
effect on neuropathic pain ([1]; 20 mg/kg p.o.): little effect
effect on neuropathic pain ([1]; 40 mg/kg p.o.): as strong as 5 mg/kg morphine administered subcutaneously
efficacy against acute pain (acute pain): effective against acute pain
Fold gene expression MCP-1, Brain, Treated (MCP-1): 5.5 fold
Fold gene expression MCP-1, Spinal Cord, Treated (MCP-1; untreated 19): 68 fold
Fold gene expression CB1, Brain, Treated (CB1): 1 fold
Fold gene expression CB1, Spinal Cord, Treated (CB1): 1 fold
